# Measured values reported in US20230085307A1, “PYRIDAZINONE COMPOUND AND HERBICIDE” (NISSAN CHEMICAL CORPORATION, priority 2019, published 2023).
# What was measured:
# late watergrass = assay: Test Example 1: herbicidal activity, application before weed generation under submerged conditions (Table 16, symbol A); type: in vivo, late watergrass (Echinochloa oryzicola); details: amount of applied herbicide 320 g/ha
# In short: (§1)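 Submerged Wagner pots (alluvial soil, 4 cm water) sown with weed seeds and planted with 2.5-leaf rice seedlings; emulsifiable concentrate diluted in water applied to water surface on sowing day. Held in greenhouse at 25-30 °C; injury scored 0-5 by herbicidal rate after three weeks.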
# Japanese bulrush = assay: Test Example 1: herbicidal activity, application before weed generation under submerged conditions (Table 16, symbol B); type: in vivo, Japanese bulrush (Schoenoplectus juncoides); details: amount of applied herbicide 320 g/ha
# In short: as §1
# oval-leafed pondweed = assay: Test Example 1: herbicidal activity, application before weed generation under submerged conditions (Table 16, symbol C); type: in vivo, oval-leafed pondweed (Monochoria vaginalis); details: amount of applied herbicide 320 g/ha
# In short: as §1
# barnyard grass [1] = assay: Test Example 3: herbicidal effect by foliage application, Wagner pot (Table 18, symbol H); type: in vivo, barnyard grass (Echinochloa crus-galli); details: 344 g/ha
# In short: (§2)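 Plants were sown in alluvial soil held under 0.1–0.5 cm standing water and grown 14 days in a greenhouse at 25–30 °C. An emulsifiable formulation, water-diluted to the set dose, was then sprayed onto the foliage, and effects were scored three weeks later using previously defined criteria.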
# Chinese sprangletop = assay: Test Example 3: herbicidal effect by foliage application, Wagner pot (Table 18, symbol D); type: in vivo, chinese sprangletop (Leptochloa chinensis); details: 344 g/ha
# In short: as §2
# rice flat sedge = assay: Test Example 3: herbicidal effect by foliage application, Wagner pot (Table 18, symbol E); type: in vivo, rice flat sedge (Cyperus iria); details: 344 g/ha
# In short: as §2
# southern crabgrass [2] = assay: Test Example 4: herbicidal effect by soil treatment (Table 19, symbol F); type: in vivo, southern crabgrass (Digitaria ciliaris); details: amount of applied herbicide 320 g/ha
# In short: (§3)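 Applied as a water-diluted emulsion, the compound was sprayed onto soil covering newly sown seeds. Evaluation came three weeks after application, in a greenhouse held at 25° C. to 30° C.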
# green foxtail [3] = assay: Test Example 4: herbicidal effect by soil treatment (Table 19, symbol G); type: in vivo, green foxtail (Setaria viridis); details: amount of applied herbicide 320 g/ha
# In short: as §3
# barnyard grass [4] = assay: Test Example 4: herbicidal effect by soil treatment (Table 19, symbol H); type: in vivo, barnyard grass (Echinochloa crus-galli); details: amount of applied herbicide 320 g/ha
# In short: as §3
# wild oat [5] = assay: Test Example 4: herbicidal effect by soil treatment (Table 19, symbol I); type: in vivo, wild oat (Avena fatua); details: amount of applied herbicide 320 g/ha
# In short: as §3
# blackgrass [6] = assay: Test Example 4: herbicidal effect by soil treatment (Table 19, symbol J); type: in vivo, blackgrass (Alopecurus myosuroides); details: amount of applied herbicide 320 g/ha
# In short: as §3
# Italian ryegrass [7] = assay: Test Example 4: herbicidal effect by soil treatment (Table 19, symbol K); type: in vivo, Italian ryegrass (Lolium multiflorum); details: amount of applied herbicide 320 g/ha
# In short: as §3
# windgrass [8] = assay: Test Example 4: herbicidal effect by soil treatment (Table 19, symbol L); type: in vivo, windgrass (Apera spica-venti); details: amount of applied herbicide 320 g/ha
# In short: as §3
# velvetleaf [9] = assay: Test Example 4: herbicidal effect by soil treatment (Table 19, symbol M); type: in vivo, velvetleaf (Abutilon theophrasti); details: amount of applied herbicide 320 g/ha
# In short: as §3
# redroot pigweed [10] = assay: Test Example 4: herbicidal effect by soil treatment (Table 19, symbol N); type: in vivo, redroot pigweed (Amaranthus retroflexus); details: amount of applied herbicide 320 g/ha
# In short: as §3
# lambsquarters [11] = assay: Test Example 4: herbicidal effect by soil treatment (Table 19, symbol O); type: in vivo, lambsquarters (Chenopodium album); details: amount of applied herbicide 320 g/ha
# In short: as §3
# chickweed [12] = assay: Test Example 4: herbicidal effect by soil treatment (Table 19, symbol P); type: in vivo, common chickweed (Stellaria media); details: amount of applied herbicide 320 g/ha
# In short: as §3
# persian speedwell [13] = assay: Test Example 4: herbicidal effect by soil treatment (Table 19, symbol R); type: in vivo, Persian speedwell (Veronica persica); details: amount of applied herbicide 320 g/ha
# In short: as §3
# southern crabgrass [14] = assay: Test Example 5: herbicidal effect by foliage application, plastic box (Table 20, symbol F); type: in vivo, southern crabgrass (Digitaria ciliaris); details: amount of applied herbicide 320 g/ha; foliage application after 14-day growth; evaluated three weeks after application
# In short: (§4)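 Sow seeds spot-wise in sterilized diluvial soil; cover with ~1.5 cm soil. Grow 14 days in greenhouse, 25° C. to 30° C. Spray foliage with emulsion diluted to predetermined amount. Rate effect after 3 weeks.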
# green foxtail [15] = assay: Test Example 5: herbicidal effect by foliage application, plastic box (Table 20, symbol G); type: in vivo, green foxtail (Setaria viridis); details: amount of applied herbicide 320 g/ha; foliage application after 14-day growth; evaluated three weeks after application
# In short: as §4
# barnyard grass [16] = assay: Test Example 5: herbicidal effect by foliage application, plastic box (Table 20, symbol H); type: in vivo, barnyard grass (Echinochloa crus-galli); details: amount of applied herbicide 320 g/ha; foliage application after 14-day growth; evaluated three weeks after application
# In short: as §4
# wild oat [17] = assay: Test Example 5: herbicidal effect by foliage application, plastic box (Table 20, symbol I); type: in vivo, wild oat (Avena fatua); details: amount of applied herbicide 320 g/ha; foliage application after 14-day growth; evaluated three weeks after application
# In short: as §4
# blackgrass [18] = assay: Test Example 5: herbicidal effect by foliage application, plastic box (Table 20, symbol J); type: in vivo, blackgrass (Alopecurus myosuroides); details: amount of applied herbicide 320 g/ha; foliage application after 14-day growth; evaluated three weeks after application
# In short: as §4
# Italian ryegrass [19] = assay: Test Example 5: herbicidal effect by foliage application, plastic box (Table 20, symbol K); type: in vivo, Italian ryegrass (Lolium multiflorum); details: amount of applied herbicide 320 g/ha; foliage application after 14-day growth; evaluated three weeks after application
# In short: as §4
# windgrass [20] = assay: Test Example 5: herbicidal effect by foliage application, plastic box (Table 20, symbol L); type: in vivo, windgrass (Apera spica-venti); details: amount of applied herbicide 320 g/ha; foliage application after 14-day growth; evaluated three weeks after application
# In short: as §4
# velvetleaf [21] = assay: Test Example 5: herbicidal effect by foliage application, plastic box (Table 20, symbol M); type: in vivo, velvetleaf (Abutilon theophrasti); details: amount of applied herbicide 320 g/ha; foliage application after 14-day growth; evaluated three weeks after application
# In short: as §4
# redroot pigweed [22] = assay: Test Example 5: herbicidal effect by foliage application, plastic box (Table 20, symbol N); type: in vivo, redroot pigweed (Amaranthus retroflexus); details: amount of applied herbicide 320 g/ha; foliage application after 14-day growth; evaluated three weeks after application
# In short: as §4
# lambsquarters [23] = assay: Test Example 5: herbicidal effect by foliage application, plastic box (Table 20, symbol O); type: in vivo, lambsquarters (Chenopodium album); details: amount of applied herbicide 320 g/ha; foliage application after 14-day growth; evaluated three weeks after application
# In short: as §4
# chickweed [24] = assay: Test Example 5: herbicidal effect by foliage application, plastic box (Table 20, symbol P); type: in vivo, common chickweed (Stellaria media); details: amount of applied herbicide 320 g/ha; foliage application after 14-day growth; evaluated three weeks after application
# In short: as §4
# persian speedwell [25] = assay: Test Example 5: herbicidal effect by foliage application, plastic box (Table 20, symbol R); type: in vivo, Persian speedwell (Veronica persica); details: amount of applied herbicide 320 g/ha; foliage application after 14-day growth; evaluated three weeks after application
# In short: as §4
smiles,measurement,setting,value
CCCC(=O)Oc1c(C)nn(C)c(=O)c1-c1c(-c2ccc(C(=O)OC)cc2)sc2cc(F)c(F)cc12 [5-028],"Herbicidal effect, A: late watergrass",late watergrass,0 (Herbicidal rate of 5% or less (almost no effect))
same,"Herbicidal effect, B: Japanese bulrush",Japanese bulrush,2 (Herbicidal rate of 20% or more and less than 40%)
same,"Herbicidal effect, C: oval-leafed pondweed",oval-leafed pondweed,2 (Herbicidal rate of 20% or more and less than 40%)
same,herbicidal effect on barnyard grass (H),barnyard grass [1],5 (Herbicidal rate of 90% or more (almost completely withered))
same,herbicidal effect on Chinese sprangletop (D),Chinese sprangletop,0 (Herbicidal rate of 5% or less (almost no effect))
same,herbicidal effect on rice flat sedge (E),rice flat sedge,0 (Herbicidal rate of 5% or less (almost no effect))
same,"F: southern crabgrass, herbicidal effect grade",southern crabgrass [2],0 (Herbicidal rate of 5% or less (almost no effect))
same,"G: green foxtail, herbicidal effect grade",green foxtail [3],0 (Herbicidal rate of 5% or less (almost no effect))
same,"H: barnyard grass, herbicidal effect grade",barnyard grass [4],0 (Herbicidal rate of 5% or less (almost no effect))
same,"I: wild oat, herbicidal effect grade",wild oat [5],0 (Herbicidal rate of 5% or less (almost no effect))
same,"J: blackgrass, herbicidal effect grade",blackgrass [6],0 (Herbicidal rate of 5% or less (almost no effect))
same,"K: Italian ryegrass, herbicidal effect grade",Italian ryegrass [7],0 (Herbicidal rate of 5% or less (almost no effect))
same,"L: windgrass, herbicidal effect grade",windgrass [8],0 (Herbicidal rate of 5% or less (almost no effect))
same,"M: velvetleaf, herbicidal effect grade",velvetleaf [9],0 (Herbicidal rate of 5% or less (almost no effect))
same,"N: redroot pigweed, herbicidal effect grade",redroot pigweed [10],3 (Herbicidal rate of 40% or more and less than 70%)
same,"O: lambsquarters, herbicidal effect grade",lambsquarters [11],2 (Herbicidal rate of 20% or more and less than 40%)
same,"P: chickweed, herbicidal effect grade",chickweed [12],1 (Herbicidal rate of 5% or more and less than 20%)
same,"R: persian speedwell, herbicidal effect grade",persian speedwell [13],1 (Herbicidal rate of 5% or more and less than 20%)
same,"Herbicidal effect by foliage application, F: southern crabgrass",southern crabgrass [14],0 (Herbicidal rate of 5% or less (almost no effect))
same,"Herbicidal effect by foliage application, G: green foxtail",green foxtail [15],0 (Herbicidal rate of 5% or less (almost no effect))
same,"Herbicidal effect by foliage application, H: barnyard grass",barnyard grass [16],0 (Herbicidal rate of 5% or less (almost no effect))
same,"Herbicidal effect by foliage application, I: wild oat",wild oat [17],0 (Herbicidal rate of 5% or less (almost no effect))
same,"Herbicidal effect by foliage application, J: blackgrass",blackgrass [18],0 (Herbicidal rate of 5% or less (almost no effect))
same,"Herbicidal effect by foliage application, K: Italian ryegrass",Italian ryegrass [19],0 (Herbicidal rate of 5% or less (almost no effect))
same,"Herbicidal effect by foliage application, L: windgrass",windgrass [20],0 (Herbicidal rate of 5% or less (almost no effect))
same,"Herbicidal effect by foliage application, M: velvetleaf",velvetleaf [21],3 (Herbicidal rate of 40% or more and less than 70%)
same,"Herbicidal effect by foliage application, N: redroot pigweed",redroot pigweed [22],3 (Herbicidal rate of 40% or more and less than 70%)
same,"Herbicidal effect by foliage application, O: lambsquarters",lambsquarters [23],3 (Herbicidal rate of 40% or more and less than 70%)
same,"Herbicidal effect by foliage application, P: chickweed",chickweed [24],5 (Herbicidal rate of 90% or more (almost completely withered))
same,"Herbicidal effect by foliage application, R: persian speedwell",persian speedwell [25],4 (Herbicidal rate of 70% or more and less than 90%)
